According to US11987648B2, “Cyclohexapeptides as selective somatostatin SST5 receptor agonists” (Heptares Therapeutics Limited, priority 2018, dated 2024):
Read-outs that look alike come from different tables or passages of the source. *1 amine or outer side, *2 acyl side, *3 side chain or, on linkers, in order; H or OH if unused. Where a SMILES comes first, the peptide text is derived from it. Side-chain parts run from the residue outwards. [ ]: non-standard residue; d: D form. The star is where a group is joined. Ala(piperidin-4-yl) = O=C([C@H](CC1CCN([*:3])CC1)N[*:1])[*:2]; dTrp(5-OMe) = COc1ccc2[nH]cc(C[C@@H](N)C(=O)O)c2c1; dTrp(4-Me) = Cc1cccc2[nH]cc(C[C@@H](N)C(=O)O)c12; Phe(3-Cl) = N[C@@H](Cc1cccc(Cl)c1)C(=O)O; Ethylenediamine = C(CN[*:2])N[*:1]; Hyp = O=C(O)[C@@H]1C[C@@H](O)CN1; hPhe = N[C@@H](CCc1ccccc1)C(=O)O; 3Pal = N[C@@H](Cc1cccnc1)C(=O)O; Benzyl(4-Cl) = Clc1ccc(C*)cc1; Phg = N[C@H](C(=O)O)c1ccccc1; CO = O=C([*:1])[*:2]; Bn = c1ccc(C*)cc1

Columns and labels:
SST2 = SST2 (Homo sapiens, UniProt P30874); experiment: Hit Hunter cAMP XS+ assay, SST2 activation via Gi (reduction of forskolin-stimulated cAMP); format: cell-based; conditions: for Emax: read-out: SST2 (EMax)
Chain of SST2 (P30874 whole entry): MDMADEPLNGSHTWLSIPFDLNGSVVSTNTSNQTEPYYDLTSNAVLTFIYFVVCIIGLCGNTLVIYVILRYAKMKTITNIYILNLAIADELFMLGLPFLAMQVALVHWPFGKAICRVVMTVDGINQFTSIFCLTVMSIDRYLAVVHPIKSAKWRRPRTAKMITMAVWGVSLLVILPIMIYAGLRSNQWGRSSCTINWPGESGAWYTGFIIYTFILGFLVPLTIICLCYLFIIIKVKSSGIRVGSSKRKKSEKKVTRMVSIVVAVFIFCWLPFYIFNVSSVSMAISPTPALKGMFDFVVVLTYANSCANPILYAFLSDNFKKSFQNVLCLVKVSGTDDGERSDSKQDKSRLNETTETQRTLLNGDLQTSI
Protocol: (§1) A Hit Hunter® cAMP XS+ assay was used to monitor activation of the SST2 and SST5 via the Gi G protein. Cells were pre-stimulated with forskolin to elicit a cAMP response and the potency and efficacy of somatostatin agonists to reduce cAMP was measured. Briefly cells (10,000 cells/well) were incubated (37° C.; 30 min) with compound ([…]) in media (2:1 HBSS/11 mM Hepes: cAMP XS+Ab reagent) in the presence of EC80 forskolin ([…] and 15 μM SST5). Signal was detected through incubation with 20 μL cAMP XS+ED/CL lysis cocktail ([…]; RT) followed by incubation with […] cAMP XS+EA reagent (180 min; RT). Microplates were read with a PerkinElmer Envision™ instrument for chemiluminescent signal detection.

SST5 = SST5 (Homo sapiens, UniProt P35346); experiment: Hit Hunter cAMP XS+ assay, SST5 activation via Gi (reduction of forskolin-stimulated cAMP); format: cell-based; conditions: for Emax: read-out: SST5 (EMax); for SST5/2 Selectivity: selectivity for SST5 over SST2
Chain of SST5 (P35346 whole entry): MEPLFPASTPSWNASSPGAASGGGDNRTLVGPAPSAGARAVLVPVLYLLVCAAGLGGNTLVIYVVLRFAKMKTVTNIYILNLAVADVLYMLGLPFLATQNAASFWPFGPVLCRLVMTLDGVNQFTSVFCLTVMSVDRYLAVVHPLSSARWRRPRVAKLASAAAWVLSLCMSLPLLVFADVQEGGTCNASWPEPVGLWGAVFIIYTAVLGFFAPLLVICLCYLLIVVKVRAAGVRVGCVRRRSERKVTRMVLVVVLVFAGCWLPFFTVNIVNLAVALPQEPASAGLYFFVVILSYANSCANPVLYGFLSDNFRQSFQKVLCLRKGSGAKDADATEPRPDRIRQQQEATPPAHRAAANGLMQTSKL
Protocol: as §1

[1] = reduction of forskolin-stimulated cAMP, 4-parameter logistic fit, read-out: SST2 pEC50 (converted)
[2] = reduction of forskolin-stimulated cAMP, 4-parameter logistic fit, read-out: SST5 pEC50 (converted)

| Compound | EC50 (SST2) | Emax (SST2) | EC50 (SST5) | Emax (SST5) | SST5/2 Selectivity (SST5) | EC50 (SST2; [1]) | EC50 (SST5; [2]) |
| --- | --- | --- | --- | --- | --- | --- | --- |
| NCCNC(=O)O[C@@H]1C[C@H]2C(=O)N[C@@H](c3ccccc3)C(=O)N[C@H](Cc3c[nH]c4ccccc34)C(=O)N[C@@H](CC3CCNCC3)C(=O)N[C@@H](Cc3ccc(OCc4ccccc4)cc3)C(=O)N[C@@H](Cc3ccccc3)C(=O)N2C1 [Example 1] (cyclo(F[Hyp]([CO-Ethylenediamine])[Phg][dW][Ala(piperidin-4-yl)]Y(Bn))) | 3160 nM | 62% | 25.1 nM | 98.6% | 130.7 |  |  |
| NCCNC(=O)O[C@@H]1C[C@H]2C(=O)N[C@@H](Cc3ccccc3)C(=O)N[C@H](Cc3c[nH]c4ccccc34)C(=O)N[C@@H](CC3CCNCC3)C(=O)N[C@@H](Cc3ccc(OCc4ccccc4)cc3)C(=O)N[C@@H](Cc3ccccc3)C(=O)N2C1 [Example 2] (cyclo(F[Hyp]([CO-Ethylenediamine])F[dW][Ala(piperidin-4-yl)]Y(Bn))) | 398 nM | 96.4% | 20 nM | 105% | 21.9 |  |  |
| NCCNC(=O)O[C@@H]1C[C@H]2C(=O)N[C@@H](CCc3ccccc3)C(=O)N[C@H](Cc3c[nH]c4ccccc34)C(=O)N[C@@H](CC3CCNCC3)C(=O)N[C@@H](Cc3ccc(OCc4ccccc4)cc3)C(=O)N[C@@H](Cc3cccnc3)C(=O)N2C1 [Example 3] (cyclo([3Pal][Hyp]([CO-Ethylenediamine])[hPhe][dW][Ala(piperidin-4-yl)]Y(Bn))) | 200 nM | 98.4% | 0.794 nM | 100% | 236.7 |  |  |
| Cc1cccc2[nH]cc(C[C@H]3NC(=O)[C@H](c4ccccc4)NC(=O)[C@@H]4C[C@@H](OC(=O)NCCN)CN4C(=O)[C@H](Cc4ccccc4)NC(=O)[C@H](Cc4ccc(OCc5ccccc5)cc4)NC(=O)[C@H](CC4CCNCC4)NC3=O)c12 [Example 4] (cyclo(F[Hyp]([CO-Ethylenediamine])[Phg][dTrp(4-Me)][Ala(piperidin-4-yl)]Y(Bn))) | 251 nM | 103% | 12.6 nM | 105% | 23.6 |  |  |
| COc1ccc2[nH]cc(C[C@H]3NC(=O)[C@H](c4ccccc4)NC(=O)[C@@H]4C[C@@H](OC(=O)NCCN)CN4C(=O)[C@H](Cc4ccccc4)NC(=O)[C@H](Cc4ccc(OCc5ccccc5)cc4)NC(=O)[C@H](CC4CCNCC4)NC3=O)c2c1 [Example 5] (cyclo(F[Hyp]([CO-Ethylenediamine])[Phg][dTrp(5-OMe)][Ala(piperidin-4-yl)]Y(Bn))) |  | 97.6% |  | 98.7% | 33.8 | 316 nM | 10 nM |
| NCCNC(=O)O[C@@H]1C[C@H]2C(=O)N[C@@H](c3ccccc3)C(=O)N[C@H](Cc3c[nH]c4ccccc34)C(=O)N[C@@H](CC3CCNCC3)C(=O)N[C@@H](Cc3ccc(OCc4ccc(Cl)cc4)cc3)C(=O)N[C@@H](Cc3ccccc3)C(=O)N2C1 [Example 6] (cyclo(F[Hyp]([CO-Ethylenediamine])[Phg][dW][Ala(piperidin-4-yl)]Y(Benzyl(4-Cl)))) |  | 97.9% |  | 97.9% | 41.9 | 50.1 nM | 1.26 nM |
| NCCNC(=O)O[C@@H]1C[C@H]2C(=O)N[C@@H](c3ccccc3)C(=O)N[C@H](Cc3c[nH]c4ccccc34)C(=O)N[C@@H](CC3CCNCC3)C(=O)N[C@@H](Cc3ccc(OCc4ccccc4)cc3)C(=O)N[C@@H](Cc3cccc(Cl)c3)C(=O)N2C1 [Example 7] (cyclo([Hyp]([CO-Ethylenediamine])[Phg][dW][Ala(piperidin-4-yl)]Y(Bn)[Phe(3-Cl)])) |  | 99.2% |  | 102% | 19.3 | 10 nM | 0.501 nM |
| C[C@@H](O)[C@@H]1NC(=O)[C@H](CCCCN)NC(=O)[C@@H](Cc2c[nH]c3ccccc23)NC(=O)[C@H](Cc2ccccc2)NC(=O)[C@@H](NC(=O)[C@H](N)Cc2ccccc2)CSSC[C@@H](C(=O)N[C@H](CO)[C@@H](C)O)NC1=O [Octreotide] |  | 98.5% |  |  |  |  |  |
